From US7998965B2, “Glutamate aggrecanase inhibitors” (Wyeth LLC, priority 2005, dated 2011) come the findings set out here.

For experiment [1], the target named is T1, purified recombinant human Aggrecanase-1 (rAgg1) (Homo sapiens, UniProt O75173).
T1 sequence (O75173 213-837): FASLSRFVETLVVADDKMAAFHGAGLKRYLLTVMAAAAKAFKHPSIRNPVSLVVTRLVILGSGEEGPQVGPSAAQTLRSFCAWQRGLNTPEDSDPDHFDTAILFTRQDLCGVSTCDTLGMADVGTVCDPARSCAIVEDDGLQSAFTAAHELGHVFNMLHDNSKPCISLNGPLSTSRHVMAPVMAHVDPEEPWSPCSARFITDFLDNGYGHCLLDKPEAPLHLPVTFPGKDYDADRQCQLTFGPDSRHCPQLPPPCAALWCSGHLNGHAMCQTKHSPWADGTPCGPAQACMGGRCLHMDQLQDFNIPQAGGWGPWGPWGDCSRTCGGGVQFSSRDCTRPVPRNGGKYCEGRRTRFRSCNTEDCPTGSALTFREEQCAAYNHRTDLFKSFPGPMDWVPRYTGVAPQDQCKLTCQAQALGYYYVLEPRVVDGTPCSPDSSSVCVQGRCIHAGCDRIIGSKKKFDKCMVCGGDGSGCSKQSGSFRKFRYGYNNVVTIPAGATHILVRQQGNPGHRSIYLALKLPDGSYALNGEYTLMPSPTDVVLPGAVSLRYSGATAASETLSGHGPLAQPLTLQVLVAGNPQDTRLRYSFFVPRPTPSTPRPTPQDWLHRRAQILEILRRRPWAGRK
Briefly: In vitro fluorescence screen for Aggrecanase-1 inhibitors. As to conditions: for IC50: read-out: Agg1 IC50; for Ki: read-out: Ki Agg1. The arrangement: Agg1 % at concentration: scale not given here. In kind it is biochemical.

In experiment [2] the target is T2, purified recombinant human Aggrecanase-2 (Ag2t-Phe628-Strep) (Homo sapiens, UniProt Q9UNA0).
T2 construct: the form used is denoted as Ag2t-Phe628-Strep (MW=41,737)
T2 sequence (Q9UNA0 262-628): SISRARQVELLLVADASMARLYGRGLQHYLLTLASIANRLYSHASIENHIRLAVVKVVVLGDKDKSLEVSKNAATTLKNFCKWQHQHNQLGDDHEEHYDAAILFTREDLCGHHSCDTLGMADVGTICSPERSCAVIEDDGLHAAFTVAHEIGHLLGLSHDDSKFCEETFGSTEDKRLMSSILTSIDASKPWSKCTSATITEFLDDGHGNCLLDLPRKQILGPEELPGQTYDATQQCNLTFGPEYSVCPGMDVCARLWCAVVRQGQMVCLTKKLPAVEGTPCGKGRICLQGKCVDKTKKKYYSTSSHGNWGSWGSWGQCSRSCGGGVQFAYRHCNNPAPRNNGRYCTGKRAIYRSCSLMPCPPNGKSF
Briefly: In vitro fluorescence screen for Aggrecanase-2 inhibitors. In kind it is biochemical. Particulars: for IC50: read-out: Agg 2 IC50; for Ki: read-out: Ki Agg2.

In general, IC50 refers to the midpoint of a concentration-inhibition curve. The Ki is a measure of affinity in units of concentration, obtained from inhibition or displacement.

The structures appear in SMILES notation. Where two headings read alike, the source gives them in different places.

With `COc1cccc(-c2ccc(C(=O)N[C@@H](CCC(=O)O)C(=O)NC(C)(C)Cc3ccc(F)cc3)s2)c1` [N-[2-(4-fluorophenyl)-1,1-dimethylethyl]-N^2-{[5-(3-methoxyphenyl)-2-thienyl]carbonyl}-L-α-glutamine], in experiment [1] (Table 3), the 50% inhibitory concentration (IC50) was less than 0.03 µM and the inhibition constant (Ki) was 0.0062 µM. For the same compound, in experiment [2] (Table 3), the IC50 was in the range of 0.1 to 0.3 µM and the inhibitory constant (Ki) amounted to 0.143 µM.

As to `CC(C)(Cc1ccc(Cl)cc1)NC(=O)[C@H](CCC(=O)O)NC(=O)c1sccc1-c1ccccc1` [N-[2-(4-chlorophenyl)-1,1-dimethylethyl]-N^2-[(3-phenyl-2-thienyl)carbonyl]-L-α-glutamine], the values for the IC50 in experiment [1] (Table 3) and in experiment [2] (Table 3) were greater than 25 µM and greater than 100 µM, respectively.

On to `C[C@H](NC(=O)[C@H](CCC(=O)O)NC(=O)c1ccc(-c2ccccc2)cc1)c1ccc(F)cc1` [Example 8RRRRR, N^2-(biphenyl-4-ylcarbonyl)-N1-[(1S)-1-(4-fluorophenyl)ethyl]-L-α-glutamine], for which the values for the IC50 in experiment [1] (Table 2) and in experiment [2] (Table 2) were 0.129 µM and 2.9 µM, respectively.

In the case of `O=C(O)CC[C@H](NC(=O)c1ccc2c(c1)C(=O)c1ccccc1-2)C(=O)NCCCCCCO` [Example 8XXXXX, N^1-(6-hydroxyhexyl)-N^2-[(9-oxo-9H-fluoren-2-yl)carbonyl]-L-α-glutamine], the IC50 amounted to 0.246 µM in experiment [1] (Table 2) and 1.45 µM in experiment [2] (Table 2).

Regarding `CC(NC(=O)[C@H](CCC(=O)OC(C)(C)C)NC(=O)c1ccc(-c2ccccc2)cc1)c1ccccc1` (stereo partly drawn) [Example 8SSSSS, tert-butyl N^2-(biphenyl-4-ylcarbonyl)-N^1-(1-Phenylethyl)-L-α-glutaminate], the IC50 in experiment [1] (Table 2) was 0.208 µM; in experiment [2] (Table 2) it was 2.47 µM.

Consider `O=C(O)CC[C@H](NC(=O)c1ccc(-c2ccc(O)cc2)cc1)C(=O)NCC12CC3CC(CC(C3)C1)C2` [Example 17O, N-(1-adamantylmethyl)-N^2-[(4′-hydroxybiphenyl-4-yl)carbonyl]-L-α-glutamine], for which the IC50 in experiment [1] (Table 2) was 8.5 µM; in experiment [2] (Table 2), roughly 22 µM.

As to `COc1cccc(OCc2ccc(-c3ccc(C(=O)N[C@@H](CCC(=O)O)C(=O)NC(C)(C)Cc4ccccc4)cc3)cc2)c1` [Example 15BB, N-(1,1-dimethyl-2-phenylethyl)-N^2-({4′-[(3-methoxyphenoxy)methyl]biphenyl-4-yl}carbonyl)-L-α-glutamine], the values for the concentration for half-maximal inhibition (IC50) in experiment [1] (Table 2) and in experiment [2] (Table 2) were 0.053 µM and 0.527 µM, respectively.

In the case of `CC(C)(Cc1ccccc1)NC(=O)[C@H](CCC(=O)O)NC(=O)c1ccc(-c2ccccc2)o1` [N-(1,1-dimethyl-2-phenylethyl)-N^2-(5-phenyl-2-furoyl)-L-α-glutamine], the “Agg1 % at concentration” value in experiment [1] (Table 3, at 8300 (nM)) came out at 30%. The “Agg 2 % at concentration” value in experiment [2] (Table 3, at 25000 (nM)) was found to be 28%.

For the compound `CC(C)(Cc1ccccc1)NC(=O)[C@H](CCC(=O)O)NC(=O)c1ccc(-c2ccc(Cl)s2)nc1` [N^2-{[6-(5-chloro-2-thienyl)pyridin-3-yl]carbonyl}-N-(1,1-dimethyl-2-phenylethyl)-L-α-glutamine], in experiment [1] (Table 3), the IC50 was 0.02 to 0.07 µM and the Ki was 0.0376 µM. For the same compound, in experiment [2] (Table 3), the half-maximal inhibitory concentration (IC50) lay within 0.1 to 0.3 µM and the inhibition constant Ki is 0.359 µM.

For the compound `CC(C)(Cc1ccc(Cl)cc1)NC(=O)[C@H](CCC(=O)O)NC(=O)c1ccc(-c2ccccc2)s1` [Example 8ZZZZZZZ, N-[2-(4-chlorophenyl)-1,1-dimethylethyl]-N^2-[(5-phenyl-2-thienyl)carbonyl]-L-α-glutamine], in experiment [1] (Table 3), the half-maximal inhibitory concentration (IC50) is less than 0.03 µM and the Ki is 0.0127 µM. Also, in experiment [2] (Table 3), the half-maximal inhibitory concentration (IC50) lay within 0.2 to 0.6 µM and the inhibition constant Ki stood at 0.29 µM.

Consider `COc1cc(CNC(=O)[C@H](CCC(=O)O)NC(=O)c2ccc(-c3cccc(C(=O)O)c3)cc2)cc(OC)c1OC` [Example 17D, 4′-{[((1S)-3-carboxy-1-{[(3,4,5-trimethoxybenzyl)amino]carbonyl}propyl)amino]carbonyl}biphenyl-3-carboxylic acid], for which the figures for the IC50 in experiment [1] (Table 2) and in experiment [2] (Table 2) were greater than 17 µM and greater than 200 µM, respectively.

As for `CC(C)(Cc1ccc(Cl)cc1)NC(=O)[C@H](CCC(=O)O)NC(=O)c1ccc(-c2cccc(F)c2F)cc1` [Example 8EEEEEEE, N-[2-(4-chlorophenyl)-1,1-dimethylethyl]-N^2-[(2′,3′-difluorobiphenyl-4-yl)carbonyl]-L-α-glutamine], the IC50 in experiment [1] (Table 3) was determined as 0.037 µM; in experiment [2] (Table 3), 0.51 µM.

For the compound `O=C(O)CC[C@H](NC(=O)c1ccc(-c2ccccc2)cc1)C(=O)NCCc1ccc(-c2cccs2)cc1` [Example 10D, N^2-(biphenyl-4-ylcarbonyl)-N^1-{2-[4-(2-thienyl)phenyl]ethyl}-L-α-glutamine], the IC50 worked out at 0.48 µM in experiment [1] (Table 1) and 3.2 µM in experiment [2] (Table 1).

As for `O=C(O)CC[C@H](NC(=O)c1ccc(C#CC2CCC(O)CC2)cc1)C(=O)NCc1ccccc1` (stereo partly drawn) [Example 17QQ, N-benzyl-N^2-{4-[(4-hydroxycyclohexyl)ethynyl]benzoyl}-L-α-glutamine], the figures for the half-maximal inhibitory concentration (IC50) in experiment [1] (Table 2) and in experiment [2] (Table 2) were greater than 25 µM and roughly 22 µM, respectively.

Regarding `CC(C)(Cc1ccccc1)NC(=O)[C@H](CCC(=O)O)NC(=O)c1ccc(-c2cccs2)cc1` [N-(1,1-dimethyl-2-phenylethyl)-N^2-[4-(2-thienyl)benzoyl]-L-α-glutamine], the IC50 in experiment [1] (Table 3) is less than 0.03 µM; in experiment [2] (Table 3) it was 0.06 to 0.2 µM. In addition, the Ki in experiment [1] (Table 3) is less than 0.003 µM; in experiment [2] (Table 3) it was 0.038 µM.

On to `CC(C)(Cc1ccccc1)NC(=O)[C@H](CCC(=O)O)NC(=O)c1ccc(-c2cc(F)cc(F)c2)cc1` [Example 8HHHHHHH, N^2-[(3′,5′-difluorobiphenyl-4-yl)carbonyl]-N-(1,1-dimethyl-2-phenylethyl)-L-α-glutamine], for which the IC50 amounted to 0.05 µM in experiment [1] (Table 3) and 0.18 µM in experiment [2] (Table 3).

Consider `CC(C)(Cc1ccc(Cl)cc1)NC(=O)[C@H](CCC(=O)O)NC(=O)c1ccc(-c2cc(F)ccc2F)cc1` [Example 8BBBBBBB, N-[2-(4-chlorophenyl)-1,1-dimethylethyl]-N^2-[(2′,5′-difluorobiphenyl-4-yl)carbonyl]-L-α-glutamine], for which the results for the half-inhibitory concentration (IC50) in experiment [1] (Table 3) and in experiment [2] (Table 3) were 0.11 µM and 1 µM, respectively.

On to `CN(CCc1ccccc1)C(=O)[C@H](CCC(=O)O)NC(=O)c1ccc2c(c1)Cc1ccccc1-2` [Example 8DDDDDD, N^2-(9H-fluoren-2-ylcarbonyl)-N-methyl-N-(2-phenylethyl)-L-α-glutamine], for which the results for the half-inhibitory concentration (IC50) in experiment [1] (Table 2) and in experiment [2] (Table 2) were 2.4 µM and greater than 22 µM, respectively.

With `CC(C)(Cc1ccccc1)NC(=O)[C@H](CCC(=O)O)NC(=O)c1ccc(Br)cc1` [Example 18E, N^2-(4-bromobenzoyl)-N-(1,1-dimethyl-2-phenylethyl)-L-α-glutamine], the IC50 is 2.2 µM in experiment [1] (Table 2) and greater than 11 µM in experiment [2] (Table 2).

`C[C@H](NC(=O)[C@H](CCC(=O)O)NC(=O)c1ccc2c(c1)Cc1ccccc1-2)c1ccccc1` [Example 8QQQQQ, N^2-(9H-fluoren-2-ylcarbonyl)-N^1-[(1S)-1-phenylethyl]-L-α-glutamine]: the IC50 in experiment [1] (Table 2) turned out to be 0.108 µM; in experiment [2] (Table 2), 1.16 µM.

With `O=C(O)CC[C@H](NC(=O)c1ccc(-c2ccccc2)cc1)C(=O)NCCc1ccc(-c2ccccc2)cc1` [Example 10C, N^2-(biphenyl-4-ylcarbonyl)-N^1-(2-biphenyl-4-ylethyl)-L-α-glutamine], the 50% inhibitory concentration (IC50) in experiment [1] (Table 1) was 0.24 µM; in experiment [2] (Table 1), greater than 5 µM.

With `Cc1ccc(-c2ccc(C(=O)N[C@@H](CCC(=O)O)C(=O)NC(C)(C)Cc3ccccc3)cc2)cc1` [Example 17TT, N-(1,1-dimethyl-2-phenylethyl)-N^2-[(4′-methylbiphenyl-4-yl)carbonyl]-L-α-glutamine], the results for the IC50 in experiment [1] (Table 2) and in experiment [2] (Table 2) were 0.12 µM and 0.173 µM, respectively.

Turning to `CC(C)(Cc1ccc(Cl)cc1)NC(=O)[C@H](CCC(=O)O)NC(=O)c1ccc(-c2ccc(C=O)s2)cc1` [N-[2-(4-chlorophenyl)-1,1-dimethylethyl]-N^2-[4-(5-formyl-2-thienyl)benzoyl]-L-α-glutamine], the IC50 in experiment [1] (Table 3) is less than 0.03 µM; in experiment [2] (Table 3), 0.9 µM.

On to `CC(C)(Cc1ccc(F)cc1)NC(=O)[C@H](CCC(=O)O)NC(=O)c1ccc(-c2ccc3c(c2)OCO3)cc1` [Example 8HHHHHH, N^2-[4-(1,3-benzodioxol-5-yl)benzoyl]-N-[2-(4-fluorophenyl)-1,1-dimethylethyl]-L-α-glutamine], for which the figures for the half-maximal inhibitory concentration (IC50) in experiment [1] (Table 2) and in experiment [2] (Table 2) were 0.038 µM and 0.046 µM, respectively.

As to `O=C(O)CC[C@H](NC(=O)c1cccc(Oc2ccccc2)c1)C(=O)NCc1ccccc1` [Example 8LLLLL, N^1-benzyl-N^2-(3-phenoxybenzoyl)-L-α-glutamine], the 50% inhibitory concentration (IC50) in experiment [1] (Table 2) is greater than 17 µM; in experiment [2] (Table 2), greater than 200 µM.
